pIC50: −log10 of the molar value.
Assays:
PI3 Kinase α = PI3 Kinase α (Homo sapiens, UniProt P42336); test: Fluorescence polarization assay for PI3K (PI3 Kinase α); assay type: biochemical; details: diC8-PI(4,5)P2 substrate, 25 μM ATP, one hour at 25° C.
PI3 Kinase γ = PI3 Kinase γ (Homo sapiens, UniProt P48736); test: Fluorescence polarization assay for PI3K (PI3 Kinase γ); assay type: biochemical; details: diC8-PI(4,5)P2 substrate, 25 μM ATP, one hour at 25° C.
Sequence of PI3 Kinase γ (P48736 whole entry): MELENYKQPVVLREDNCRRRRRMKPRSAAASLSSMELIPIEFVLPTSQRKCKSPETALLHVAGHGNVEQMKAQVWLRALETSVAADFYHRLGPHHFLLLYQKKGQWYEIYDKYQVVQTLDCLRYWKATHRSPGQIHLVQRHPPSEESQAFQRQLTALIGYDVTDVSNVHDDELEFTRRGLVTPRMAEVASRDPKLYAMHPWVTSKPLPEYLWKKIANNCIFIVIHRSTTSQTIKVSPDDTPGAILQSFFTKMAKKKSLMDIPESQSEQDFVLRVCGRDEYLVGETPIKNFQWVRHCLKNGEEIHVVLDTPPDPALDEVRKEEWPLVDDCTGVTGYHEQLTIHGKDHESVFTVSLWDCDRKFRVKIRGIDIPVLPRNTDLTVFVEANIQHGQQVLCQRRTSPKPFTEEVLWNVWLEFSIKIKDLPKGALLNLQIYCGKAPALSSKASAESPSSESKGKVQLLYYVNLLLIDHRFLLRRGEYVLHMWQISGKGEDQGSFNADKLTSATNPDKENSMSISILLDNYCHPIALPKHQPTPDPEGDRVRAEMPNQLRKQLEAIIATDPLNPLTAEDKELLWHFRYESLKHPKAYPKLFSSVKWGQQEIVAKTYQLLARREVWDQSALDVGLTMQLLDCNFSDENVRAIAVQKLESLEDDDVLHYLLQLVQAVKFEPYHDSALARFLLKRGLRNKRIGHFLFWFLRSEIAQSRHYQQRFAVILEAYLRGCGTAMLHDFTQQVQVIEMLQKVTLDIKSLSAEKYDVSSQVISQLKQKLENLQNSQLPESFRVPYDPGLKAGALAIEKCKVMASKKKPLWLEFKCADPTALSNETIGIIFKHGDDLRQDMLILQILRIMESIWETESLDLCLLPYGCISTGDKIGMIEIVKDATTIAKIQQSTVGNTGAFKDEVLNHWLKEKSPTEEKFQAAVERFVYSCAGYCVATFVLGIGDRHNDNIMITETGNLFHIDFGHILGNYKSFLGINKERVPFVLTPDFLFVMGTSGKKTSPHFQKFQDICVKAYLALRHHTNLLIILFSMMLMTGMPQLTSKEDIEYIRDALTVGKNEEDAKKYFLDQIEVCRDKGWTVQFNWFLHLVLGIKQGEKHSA

Sequence of PI3 Kinase α (P42336 whole entry): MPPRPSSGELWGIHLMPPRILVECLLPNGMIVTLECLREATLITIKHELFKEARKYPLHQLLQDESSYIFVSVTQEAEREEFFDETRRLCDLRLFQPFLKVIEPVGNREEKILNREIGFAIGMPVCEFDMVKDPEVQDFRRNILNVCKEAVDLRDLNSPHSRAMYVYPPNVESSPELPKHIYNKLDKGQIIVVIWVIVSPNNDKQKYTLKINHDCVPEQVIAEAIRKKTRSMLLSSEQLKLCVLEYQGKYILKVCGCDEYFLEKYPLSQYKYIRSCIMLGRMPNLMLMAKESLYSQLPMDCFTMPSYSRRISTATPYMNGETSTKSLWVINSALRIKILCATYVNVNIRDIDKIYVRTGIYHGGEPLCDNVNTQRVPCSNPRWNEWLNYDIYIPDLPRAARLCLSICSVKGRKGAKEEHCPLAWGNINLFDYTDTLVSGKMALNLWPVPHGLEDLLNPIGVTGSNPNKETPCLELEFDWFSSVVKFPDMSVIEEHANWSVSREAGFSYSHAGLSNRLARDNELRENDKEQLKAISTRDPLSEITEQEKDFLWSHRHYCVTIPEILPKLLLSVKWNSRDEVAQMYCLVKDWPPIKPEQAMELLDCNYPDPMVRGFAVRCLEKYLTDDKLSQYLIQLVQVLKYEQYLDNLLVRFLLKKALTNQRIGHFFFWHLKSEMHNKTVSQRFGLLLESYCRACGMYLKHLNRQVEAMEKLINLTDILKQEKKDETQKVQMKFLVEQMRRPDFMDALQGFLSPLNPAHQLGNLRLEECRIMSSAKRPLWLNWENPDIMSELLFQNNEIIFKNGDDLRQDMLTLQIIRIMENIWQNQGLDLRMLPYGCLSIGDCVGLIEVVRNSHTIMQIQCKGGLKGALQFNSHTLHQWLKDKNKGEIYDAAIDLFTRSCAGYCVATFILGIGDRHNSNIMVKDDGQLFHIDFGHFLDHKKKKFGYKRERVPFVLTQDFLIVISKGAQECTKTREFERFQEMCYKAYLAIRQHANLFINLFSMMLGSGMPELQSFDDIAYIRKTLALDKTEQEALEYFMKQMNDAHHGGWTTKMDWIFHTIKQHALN
Sequence of PI3 Kinase α (P27986 whole entry partner): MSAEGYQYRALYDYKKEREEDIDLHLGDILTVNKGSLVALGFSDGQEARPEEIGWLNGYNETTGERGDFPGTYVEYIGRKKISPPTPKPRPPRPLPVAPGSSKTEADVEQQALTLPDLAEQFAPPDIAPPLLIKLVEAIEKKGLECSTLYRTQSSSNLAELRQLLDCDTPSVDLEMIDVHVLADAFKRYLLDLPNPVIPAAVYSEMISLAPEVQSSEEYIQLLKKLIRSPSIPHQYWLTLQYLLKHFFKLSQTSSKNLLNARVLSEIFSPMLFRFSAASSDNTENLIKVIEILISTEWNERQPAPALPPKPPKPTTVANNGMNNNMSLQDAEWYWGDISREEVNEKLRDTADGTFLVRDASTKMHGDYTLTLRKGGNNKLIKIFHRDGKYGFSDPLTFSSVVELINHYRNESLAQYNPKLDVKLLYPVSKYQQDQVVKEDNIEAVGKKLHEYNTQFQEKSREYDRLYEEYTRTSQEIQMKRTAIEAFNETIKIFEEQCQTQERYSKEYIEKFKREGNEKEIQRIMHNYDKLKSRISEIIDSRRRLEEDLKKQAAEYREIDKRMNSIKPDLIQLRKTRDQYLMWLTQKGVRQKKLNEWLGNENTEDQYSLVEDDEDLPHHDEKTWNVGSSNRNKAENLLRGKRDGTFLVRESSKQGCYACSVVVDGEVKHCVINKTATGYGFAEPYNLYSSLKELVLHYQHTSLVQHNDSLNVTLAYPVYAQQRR

Row | Compound | pIC50 (PI3 Kinase α) | pIC50 (PI3 Kinase γ)
1 | CCCCN1CCC(n2nnc3c(N4CCOCC4)nc(-c4ccc(NC(=O)NCCN(C)C)cc4)nc32)CC1 [Example 159, 1-(4-(3-(1-butylpiperidin-4-yl)-7-morpholino-3H-[1,2,3]triazolo[4,5-d]pyrimidin-5-yl)phenyl)-3-(2-(dimethylamino)ethyl)urea] | 6.78 | 6.16
2 | CC(C)(C)OC(=O)Cn1nnc2c(N3CCOCC3)nc(-c3cccc(O)c3)nc21 [Example 233, tert-butyl [5-(3-hydroxyphenyl)-7-morpholin-4-yl-3H-[1,2,3]triazolo[4,5-d]pyrimidin-3-yl]acetate] | 6.30 | 5.57
3 | Oc1cccc(-c2nc(N3CCOCC3)c3nnn(CCN4CCN(Cc5ccco5)CC4)c3n2)c1 [Example 113, 3-(3-{2-[4-(2-furylmethyl)piperazin-1-yl]ethyl}-7-morpholin-4-yl-3H-[1,2,3]triazolo[4,5-d]pyrimidin-5-yl)phenol] | 6.14 | 5.47
4 | OCc1cccc(-c2nc(N3CCOCC3)c3nnn(C4CCNCC4)c3n2)c1 [Example 176, [3-(7-morpholin-4-yl-3-piperidin-4-yl-3H-[1,2,3]triazolo[4,5-d]pyrimidin-5-yl)phenyl]methanol] | 7.63 | 6.79
5 | Oc1cccc(-c2nc(N3CCOCC3)c3nnn(CCN4CCNCC4)c3n2)c1 [Example 98, 3-[7-morpholin-4-yl-3-(2-piperazin-1-ylethyl)-3H-[1,2,3]triazolo[4,5-d]pyrimidin-5-yl]phenol] | 7.27 | 6.23
6 | O=C(O)Cn1nnc2c(N3CCOCC3)nc(-c3cccc(CO)c3)nc21 [Example 240, {5-[3-(hydroxymethyl)phenyl]-7-morpholin-4-yl-3H-[1,2,3]triazolo[4,5-d]pyrimidin-3-yl}acetic acid] | 6.18 | 5.77
7 | O=C(O)c1ccc(Cn2nnc3c(N4CCOCC4)nc(-c4cccc(O)c4)nc32)cc1 [Example 242, 4-{[5-(3-hydroxyphenyl)-7-morpholin-4-yl-3H-[1,2,3]triazolo[4,5-d]pyrimidin-3-yl]methyl}benzoic acid] | 6.29 | 6.07
8 | 3-{3-[4-(4-Benzylpiperazin-1-yl)butyl]-7-morpholin-4-yl-3H-[1,2,3]triazolo[4,5-d]pyrimidin-5-yl}phenol [Example 206] | 6.94 | 6.67
9 | CC(C)n1nnc2c(N3CCOCC3)nc(-c3ccc(N)cc3)nc21 [Example 81, 4-(3-isopropyl-7-morpholin-4-yl-3H-[1,2,3]triazolo[4,5-d]pyrimidin-5-yl)-phenylamine] | 5.99 | 5.33
10 | CCCCN1CCN(CCn2nnc3c(N4CCOCC4)nc(-c4cccc(O)c4)nc32)CC1 [Example 107, 3-{3-[2-(4-butylpiperazin-1-yl)ethyl]-7-morpholin-4-yl-3H-[1,2,3]triazolo[4,5-d]pyrimidin-5-yl}phenol] | 5.98 | 5.60
11 | CC(C)(C)OC(=O)N1CCN(c2ccc(NC(=O)c3ccc(Cn4nnc5c(N6CCOCC6)nc(-c6cccc(O)c6)nc54)cc3)cc2)CC1 [Example 218, tert-Butyl 4-{4-[(4-{[5-(3-hydroxyphenyl)-7-morpholin-4-yl-3H-[1,2,3]triazolo[4,5-d]pyrimidin-3-yl]methyl}benzoyl)amino]phenyl}piperazine-1-carboxylate] | 7.15 | 5.09
12 | CNC(=O)c1ccc(Cn2nnc3c(N4CCOCC4)nc(-c4cccc(O)c4)nc32)cc1 [Example 207, 4-{[5-(3-hydroxyphenyl)-7-morpholin-4-yl-3H-[1,2,3]triazolo[4,5-d]pyrimidin-3-yl]methyl}-N-methylbenzamide] | 6.47 | 5.58

Further lines, results first:

Row | pIC50 (PI3 Kinase α) | pIC50 (PI3 Kinase γ) | Compound
13 | 7.42 | 7.06 | O=C(Nc1ccc(-c2nc(N3CCOCC3)c3nnn(CC(F)(F)F)c3n2)cc1)Nc1cncnc1 [Example 136, 1-{4-[7-morpholin-4-yl-3-(2,2,2-trifluoroethyl)-3H-[1,2,3]triazolo[4,5-d]pyrimidin-5-yl]phenyl}-3-pyrimidin-5-ylurea]
14 | 7.71 | 6.29 | CC(C)(C)OC(=O)N1CC(Cn2nnc3c(N4CCOCC4)nc(-c4ccc(NC(=O)Nc5ccccc5)cc4)nc32)C1 [Example 188, tert-butyl 3-[(7-morpholin-4-yl-5-{4-[(phenylcarbamoyl)amino]phenyl}-3H-[1,2,3]triazolo[4,5-d]pyrimidin-3-yl)methyl]azetidine-1-carboxylate]
15 | 8.82 | 7.78 | CCn1nnc2c(N3CCOCC3)nc(-c3ccc(NC(=O)Nc4ccc(C(=O)NCCCN5CCN(C)CC5)cc4)cc3)nc21 [Example 55, 4-({[4-(3-ethyl-7-morpholin-4-yl-3H-[1,2,3]triazolo[4,5-d]pyrimidin-5-yl)phenyl]carbamoyl}amino)-N-[3-(4-methylpiperazin-1-yl)propyl]benzamide]
16 | 8.74 | 7.74 | CCn1nnc2c(N3CCOCC3)nc(-c3ccc(NC(=O)Nc4ccc(C(=O)N5CCC(N6CCCCC6)CC5)cc4)cc3)nc21 [Example 50, 1-[4-(1,4′-bipiperidin-1′-ylcarbonyl)phenyl]-3-[4-(3-ethyl-7-morpholin-4-yl-3H-[1,2,3]triazolo[4,5-d]pyrimidin-5-yl)phenyl]urea]
17 | 6.47 | 5.13 | CCn1nnc2c(N3CCOCC3)nc(-c3ccc(NC(=O)OCCc4ccc(N)cc4)cc3)nc21 [Example 38, 2-(4-aminophenyl)ethyl [4-(3-ethyl-7-morpholin-4-yl-3H-[1,2,3]triazolo[4,5-d]pyrimidin-5-yl)phenyl]carbamate]
18 | 6.83 | 6.26 | O=C(Nc1ccccc1)Nc1ccc(-c2nc(N3CCOCC3)c3nnn(CC4CN(Cc5ccc(F)cc5)C4)c3n2)cc1 [Example 192, 1-[4-(3-{[1-(4-fluorobenzyl)azetidin-3-yl]methyl}-7-morpholin-4-yl-3H-[1,2,3]triazolo[4,5-d]pyrimidin-5-yl)phenyl]-3-phenylurea]
19 | 8.60 | 7.59 | CCN1CCCC1CNC(=O)c1ccc(NC(=O)Nc2ccc(-c3nc(N4CCOCC4)c4nnn(CC)c4n3)cc2)cc1 (centres unmarked) [Example 59, 4-({[4-(3-ethyl-7-morpholin-4-yl-3H-[1,2,3]triazolo[4,5-d]pyrimidin-5-yl)phenyl]carbamoyl}amino)-N-[(1-ethylpyrrolidin-2-yl)methyl]benzamide]
20 | 7.68 | 5.85 | CC(C)(C)OC(=O)N1CC(n2nnc3c(N4CCOCC4)nc(-c4ccc(NC(=O)Nc5cccs5)cc4)nc32)C1 [Example 132, tert-butyl 3-(7-morpholin-4-yl-5-{4-[(2-thienylcarbamoyl)amino]phenyl}-3H-[1,2,3]triazolo[4,5-d]pyrimidin-3-yl)azetidine-1-carboxylate]
21 | 8.48 | 7.81 | CCNC(=O)c1ccc(NC(=O)Nc2ccc(-c3nc(N4CCOCC4)c4nnn(CC)c4n3)cc2)cc1 [Example 64, N-ethyl-4-({[4-(3-ethyl-7-morpholin-4-yl-3H-[1,2,3]triazolo[4,5-d]pyrimidin-5-yl)phenyl]carbamoyl}amino)benzamide]
22 | 7.47 | 7.04 | CC(C)n1nnc2c(N3CCOCC3)nc(-c3ccc(NC(=O)Nc4cc[nH]c4)cc3)nc21 [Example 95, 1-[4-(3-isopropyl-7-morpholin-4-yl-3H-[1,2,3]triazolo[4,5-d]pyrimidin-5-yl)-phenyl]-3-(1H-pyrrol-3-yl)-urea]
